{"source": "patent US20100240746A1", "about": "“STEREOISOMERS OF TRICYCLODECAN-9-YL-XANTHOGENATE” (LUMAVITA AG, priority 2007, published 2010)", "key": {"[1]": {"test_system": "HPV-31 specific DNA in HPV-31-infected CIN612 9E keratinocytes", "assay": "Long-term study, HPV-31 specific DNA (Southern Blot)", "format": "cell-based, human papilloma virus", "description": "(§1) HPV-31 infected cells (3×10^6) were dispensed into 14.5 cm dishes containing fresh E medium and 1×10^6 cells of mitomycin C-treated 3T3 fibroblast feeders. The dishes were incubated in a CO2 incubator under 5% CO2 at 37° C. in 100% humidity. Human A431 epithelial cancer cells were used as HPV-uninfected negative controls. After 6 hr incubation, the cell culture medium was removed and fresh E medium containing 0.85 g/L NaHCO3 and a test compound at concentrations of 10 and 3.3 μg/mL, or control (interferon γ at 200 IU/mL) were added. For each concentration, 4 dishes were prepared. The dishes were incubated at 37° C. in a CO2 incubator. The culture medium was replaced to new E medium containing each concentration of the test compound or control in every 72 hrs. After seven days, or when untreated cells became confluent, one dish of each group was harvested for DNA/RNA extraction, followed by Southern/Northern Blot analysis; and one dish was trypsinized, cell number were determined and cells were seeded in three new dishes, treated and cultured as described above. This procedure was repeated for 9 passages. During these passages, morphology of cells and cell density were monitored.\n(§2) Effect on HPV-31 specific DNA and RNA: DNA and RNA were analyzed in Southern and Northern Blot gels for HPV-31 specific sequences. X-ray films were scanned and optical densities of HPV-31 specific DNA and major mRNA species were integrated. Time curves were established by plotting integrated values against number of passages for each treatment dose. The T50 (time required to reduce the level to 50% of control) was determined from the time curves from crossing points of time curves with a line parallel to the x-axis corresponding to 50% of integrals of untreated control sample."}, "[2]": {"test_system": "HPV-31 specific DNA in HPV-31-infected CIN612 9E keratinocytes", "assay": "Short-term study, inhibition of HPV-31 specific DNA (Southern Blot)", "format": "cell-based, human papilloma virus", "settings": "Human papillomavirus, Keratinocyte; at 32 μg/mL, 72 hrs", "description": "The inhibitory activities of optically active (−)-enantiomer 1A against human papilloma virus were evaluated using HPV-31-infected CIN612 9E keratinocytes (Meyers et al., Science 1992, 257, 971-973).\nEffect on HPV-31 specific DNA and RNA. HPV-31 infected cells (3×10^6) were dispensed into 14.5 cm dishes containing fresh E culture medium and 1×10^6 mitomycin C-treated J2 3T3 fibroblast feeders. After 6 hrs, fresh medium containing 0.85 g/L NaHCO3 and a test compound at a series of concentrations (0, 0.5, 1, 2, 4, 8, 16, and 32 μg/mL) were added. All samples were tested in duplicates at each concentration. After incubation at 37° C. for 72 hrs, the feeder cells were removed with 4 mM EDTA, and DNA and RNA was then isolated. The isolated DNA and RNA were analyzed in Southern and Northern Blot gels for HPV-31 specific sequences. Human A431 epithelial cancer cells were used as HPV-uninfected negative control. X-ray films were scanned and optical densities of HPV-31 specific DNA and major mRNA species were integrated.\nDose response curves were established by plotting integrated values against the concentrations of the test compound."}, "[3]": {"target": "T1, B. cereus PC-PLC (phosphatidylcholine-specific phospholipase C) (Bacillus cereus, UniProt P09598)", "T1 construct": "purchased Invitrogen", "T1 sequence (P09598 39-283 limits assumed)": "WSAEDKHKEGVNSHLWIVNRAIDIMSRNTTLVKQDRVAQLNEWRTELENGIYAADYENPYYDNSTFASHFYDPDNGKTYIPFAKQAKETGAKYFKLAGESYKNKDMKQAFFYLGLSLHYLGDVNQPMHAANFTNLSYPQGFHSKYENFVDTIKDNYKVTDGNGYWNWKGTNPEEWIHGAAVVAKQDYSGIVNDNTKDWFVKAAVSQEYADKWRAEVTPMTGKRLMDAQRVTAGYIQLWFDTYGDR", "assay": "Inhibition of phosphatidylcholine-specific phospholipase C (Amplex Red PC-PLC assay kit)", "format": "biochemical", "settings": "30 min at 37° C., 0.2 U/mL PC-PLC solution, triplicate", "description": "The inhibitory activities of optically active potassium salts of (+)- and (−)-O-exo/C-exo-tricyclo [5.2.1.0^2,6]-dec-9-yl-xanthic acid 1A ((+)- and (−)-enantiomers 1A) against phosphatidylcholine-specific phospholipase C were evaluated, together with D609 and potassium salt of racemic O-exo/C-exo xanthic acid 1A (racemic 1A), using Amplex Red phosphatidylcholine-specific phospholipase C(PC-PLC) assay kit, which was obtained from Invitrogen (Calsbad, Calif.). D609 was obtained from Sigma Aldrich.\nAn Amplex Red stock solution (˜20 mM), a working reaction buffer, and a horseradish peroxidase stock solution (200 U/mL), a H2O2 working solution (20 mM), a choline oxidate stock solution (20 U/mL), an alkaline phosphatase stock solution (400 U/mL), and a B. cereus PC-PLC stock solution (10 U/mL) were prepared according to the instruction of the assay kit. The stock solution (100 mg/mL) for each test compound was also prepared by dissolving the compound in water 2 hr prior to the start of the experiment.\nA working Amplex Red/HRP/lecithin solution was prepared by adding 200 μL of Amplex Red reagent stock solution, 100 μL of HRP stock solution, 200 μL of alkaline phosphatase stock solution, 100 μL of choline oxidase stock solution, and 78 μL of the lecithin solution to […] of the working reaction buffer. PC-PLC solution (0.2 U/mL) was prepared by diluting the PC-PLC stock solution with the working reaction buffer to the desired concentration.\nThe test compound (25 μL) at a serious of concentrations was pipetted into a 96 well plate. For uninhibited PC-PLC controls and non-PC-PLC controls, 25 μL of water was added. After the addition of 50 μL of the Amplex Red/HRP/lecithin working solution, the reaction was initiated by adding 25 μL of PC-PLC solution to each well. […] After incubated for 30 min at 37° C., the reactions were measured with a fluorescence microplate reader using excitation at 550 nm and emission detection at 590 nm. The fluorescent data obtained were corrected for background fluorescence by subtracting the values obtained from the non-PC-PLC controls."}, "[4]": {"test_system": "HPV-31 specific RNA in HPV-31-infected CIN612 9E keratinocytes", "assay": "Long-term study, HPV-31 specific RNA (Northern Blot)", "format": "cell-based, human papilloma virus", "description": "as §1, §2"}, "[5]": {"test_system": "A431 cells (epithelial cancer cells)", "assay": "Long-term study, growth of HPV-uninfected control A431 cells over 9 passages", "format": "cell-based, human", "description": "as §1\nEffect on cell proliferation. Cell numbers in the dishes harvested were determined in a Neubauer hematocytometer. The multiplication factor was determined at every step of passage. The cell number of each culture at the end of the passage was divided by the number of seeded cells at the start of each passage. The end point was reached when keratinocytes treated with a test compound stopped growing. Stop of cell growth was defined as a multiplication factor of no greater than 1."}, "[6]": {"settings": "10 μg/mL, listed as (−)-enantiomer 1A"}}, "note": "Read-outs that look alike come from different tables or passages of the source.", "data": [{"smiles": "S=C(S)OC1CC2CC1C1CCCC21", "note": "(single isomer, unassigned; (-)) [(−)-Enantiomer 1A, (−)-O-exo/C-exo-tricyclo[5.2.1.0^2,6]-dec-9-yl-xanthic acid]", "values": [{"measurement": "T50 DNA", "setting": "[1]; 3.3 μg/mL", "result": 2.23, "unit": "passages"}, {"measurement": "HPV-31 specific DNA content", "setting": "[1]; 3.3 μg/mL or 10 μg/mL", "result": "continuous reductions"}, {"measurement": "T50 DNA", "setting": "[1]; [6]", "result": "< 1", "unit": "passages"}, {"measurement": "T50 DNA", "setting": "[1]; 10 μg/mL, listed as Cmpd 1A", "result": "<1", "unit": "passages"}, {"measurement": "activity at 10 µg/mL", "setting": "[1]; Human papillomavirus, Keratinocyte, 10 μg/mL, after 6 passages, read-out: number of viral genomes per cell, reduced to", "result": "< 5", "unit": "%"}, {"measurement": "activity at 10 µg/mL", "setting": "[1]; Human papillomavirus, Keratinocyte, 10 μg/mL, after 9 passages, read-out: viral DNA remaining", "result": "< 1", "unit": "%"}, {"measurement": "inhibition at 10 µg/mL", "setting": "[1]; Human papillomavirus, Keratinocyte, 10 μg/mL, after a single passage, read-out: reduction of number of viral genomes per cell", "result": "> 50", "unit": "%"}, {"measurement": "inhibition at 32 µg/mL", "setting": "[2]", "result": 37.5, "unit": "%"}, {"measurement": "IC50", "setting": "[3]", "result": 15.9, "unit": "µM"}, {"measurement": "T50 RNA", "setting": "[4]; 3.3 μg/mL", "result": 3.28, "unit": "passages"}, {"measurement": "HPV-31 specific RNA content", "setting": "[4]; 3.3 μg/mL or 10 μg/mL", "result": "continuous reductions"}, {"measurement": "T50 RNA", "setting": "[4]; [6]", "result": "< 1", "unit": "passages"}, {"measurement": "T50 RNA", "setting": "[4]; 10 μg/mL, listed as Cmpd 1A", "result": "<1", "unit": "passages"}, {"measurement": "mrna remaining at 10 µg/mL", "setting": "[4]; Homo sapiens, Keratinocyte, 10 μg/mL, after 9 passages, read-out: viral RNA remaining", "result": "< 1", "unit": "%"}, {"measurement": "cell growth", "setting": "[5]; 3.3 μg/mL", "result": "slight inhibition of cell growth"}, {"measurement": "cell growth", "setting": "[5]; 10 μg/mL", "result": "slight inhibition of cell growth"}, {"measurement": "cell growth", "setting": "[5]; overall", "result": "only minor effects on cell growth"}]}]}
